According to US20230416270A1, “NOVEL CAMPTOTHECIN DERIVATIVE, COMPOSITION COMPRISING SAME AND USE THEREOF” (priority 2020, published 2023):
Numbered stars: 1 amine (or outer) side, 2 acyl side, 3 side chain; on linkers, the order of the positions; unused ones are H or OH. Square brackets hold non-standard residues; d marks the D form. Peptide text beside a SMILES is read from it. * marks the point of attachment. Exatecan = CC[C@@]1(O)C(=O)OCc2c1cc1n(c2=O)Cc2c-1nc1cc(F)c(C)c3c1c2[C@@H](N*)CC3; Hexanoyl(6-maleimido) = O=C1C=CC(=O)N1CCCCCC(=O)*; NHCH2OCH2CO = O=C(COCN[*:1])[*:2]

Tested on: SK-BR-3 cells
Assay: Assay for antiproliferative activity against SK-BR-3 cells (CellTiter-Lumi, ATP content)
Assay type: cell-based
Details: Homo sapiens, SK-BR-3, 72 h, read-out: IC50 (nM), antiproliferative activity against SK-BR-3 cells
Procedure: The activity of the antibody-drug conjugate of the present invention can be determined by the assay for the in-vitro antiproliferative activity against SK-BR-3 cells of a camptothecin derivative as a small molecule toxin.
SK-BR-3 cells were seeded into a 384-well plate (Fisher 142762) at 3000 cells per well. The next day, serially diluted compounds were added, and 72 hours after the addition, CellTiter-Lumi (Beyotime C0068XL) was added to measure the ATP content in the cells. The growth of the cells was evaluated, and relative IC50 values of the compounds against cell growth was calculated.

Compound | IC50 [nM]
CC[C@@]1(O)C(=O)OCc2c1cc1n(c2=O)Cc2c-1nc1cc(F)c(C)c3c1c2C(N)CS3 (stereo partly drawn) [Compound 1, (9S)-1-amino-9-ethyl-5-fluoro-9-hydroxy-4-methyl-1,9,12,15-tetrahydro-13H-pyrano[3′, 4′:6,7]indolizino[1,2-b]thiopyrano[4,3,2-de]quinoline-10,13(2H)-dione] | 2.98
CC[C@@]1(O)C(=O)OCc2c1cc1n(c2=O)Cc2c-1nc1cc(F)c(C)c3c1c2[C@H](N)CS3 [Compound 1-1] | 5.81
CC[C@@]1(O)C(=O)OCc2c1cc1n(c2=O)Cc2c-1nc1cc(F)c(C)c3c1c2[C@@H](N)CS3 [Compound 1-2] | 1.73
CC[C@@]1(O)C(=O)OCc2c1cc1n(c2=O)Cc2c-1nc1cc(F)c(OC)c3c1c2[C@@H](N)CS3 [Compound 4-2] | 2.74
CC[C@@]1(O)C(=O)OCc2c1cc1n(c2=O)Cc2c-1nc1cc(F)c(C)c3c1c2[C@@H](N)CO3 [Compound 7-2] | 2.68
CC[C@@]1(O)C(=O)OCc2c1cc1n(c2=O)Cc2c-1nc1cc(F)c(C)c3c1c2[C@@H](NC)CS3 [Compound 14-2] | 4.13
CC[C@@]1(O)C(=O)OCc2c1cc1n(c2=O)Cc2c-1nc1cc(F)c(C)c3c1c2C(O)CS3 (some centres unmarked) [Compound 20] | 5.83
CCc1c(F)cc2nc3c(c4c2c1SC[C@@H]4NC(=O)CO)Cn1c-3cc2c(c1=O)COC(=O)[C@]2(O)CC [Compound 34] | 5.84
CC[C@@]1(O)C(=O)OCc2c1cc1n(c2=O)Cc2c-1nc1cc(F)c(OC)c3c1c2[C@@H](NC(=O)CO)CS3 [Compound 35] | 6.53
Cc1c(F)cc2nc3c(c4c2c1SC[C@@H]4NC(=O)CO)Cn1c-3cc2c(c1=O)COC(=O)[C@]2(O)CCF [Compound 39] | 4.78
CC[C@@]1(O)C(=O)OCc2c1cc1n(c2=O)Cc2c-1nc1cc(F)c(C)c3c1c2[C@@H](NC(=O)CO)CO3 [Compound 41] | 6.47
CC[C@@]1(O)C(=O)OCc2c1cc1n(c2=O)Cc2c-1nc1cc(F)c(C)c3c1c2[C@@H](NC(=O)[C@H](C)O)CS3 [Compound 44] | 6.29
CC[C@@]1(O)C(=O)OCc2c1cc1n(c2=O)Cc2c-1nc1cc(F)c(C)c3c1c2[C@@H](NC(=O)[C@@H](O)C1CC1)CS3 [Compound 48] | 6.73
CC[C@@]1(O)C(=O)OCc2c1cc1n(c2=O)Cc2c-1nc1cc(F)c(C)c3c1c2[C@@H](NC(=O)[C@H](O)C1CC1)CS3 [Compound 49] | 7.32
CC[C@@]1(O)C(=O)OCc2c1cc1n(c2=O)Cc2c-1nc1cc(F)c(C)c3c1c2[C@@H](N)CC3 [Exatecan, reference compound] | 5.35

Same assay, conditions: Homo sapiens; SK-BR-3, 72 hours after compound addition, relative IC50; read-out: IC50 (nM), antiproliferative activity against SK-BR-3 cells

Compound | IC50 [nM]
CCc1c(F)cc2nc3c(c4c2c1SC[C@@H]4N)Cn1c-3cc2c(c1=O)COC(=O)[C@]2(O)CC [Compound 3-2] | 2.85
CC[C@@]1(O)C(=O)OCc2c1cc1n(c2=O)Cc2cc3c(CN(C)C)c(O)ccc3nc2-1 [Topotecan, reference compound] | 58.3

Same assay, conditions: SK-BR-3, 72 hours after compound addition, relative IC50; read-out: IC50 (nM), antiproliferative activity against SK-BR-3 cells

Compound | IC50 [nM]
CC[C@@]1(O)C(=O)OCc2c1cc1n(c2=O)Cc2c-1nc1cc(F)c(C)c3c1c2[C@@H](NC(=O)COCNC(=O)CNC(=O)[C@H](Cc1ccccc1)NC(=O)CNC(=O)CNC(=O)CCCCCN1C(=O)C=CC1=O)CC3 [Deruxtecan, reference compound] ({Hexanoyl(6-maleimido)}-GGFG[NHCH2OCH2CO]-Exatecan) | 13.6

Same assay, conditions: SK-BR-3 antiproliferative activity, relative to exatecan

Compound | fold more active than exatecan [fold]
CC[C@@]1(O)C(=O)OCc2c1cc1n(c2=O)Cc2c-1nc1cc(F)c(C)c3c1c2[C@@H](N)CS3 [Compound 1-2] | 2

Tested on: SK-BR-3 cells with high expression of HER2
Assay: cells
Assay type: cell-based
Details: Homo sapiens, SK-BR-3, 144 h, read-out: IC50 (nM), antiproliferative activity of the antibody-drug conjugates against SK-BR-3 cells
Source text: SK-BR-3 cells with high expression of HER2 were selected as cell strains for in-vitro activity detection in the experiment and were used for evaluating the dose-effect relationship of the antibody-drug conjugates (ADCs) of the present invention on cell killing.

Compound | IC50 [nM]
CC[C@@]1(O)C(=O)OCc2c1cc1n(c2=O)Cc2c-1nc1cc(F)c(C)c3c1c2[C@@H](N)CC3 [Exatecan, reference compound] | 0.73
